Legend:
HL-60 = experiment: Induction of human HL60 cell differentiation after 4 days by NBT reduction assay; assay type: functional, cell-based; conditions: HL-60, 96 h
Rattus norvegicus [1] = experiment: Agonist activity at VDR in 5/6 nephrectomized uremic Sprague-Dawley rat assessed as dose require to suppress serum PTH level administered 3 times per week for 12 days measured 24 hrs post last dose by ELISA; assay type: functional
Vitamin D3 receptor [2] = target: T1, Vitamin D3 receptor (Homo sapiens, UniProt P11473); experiment: Binding affinity to VDR (unknown origin)
T1 sequence (P11473 whole entry): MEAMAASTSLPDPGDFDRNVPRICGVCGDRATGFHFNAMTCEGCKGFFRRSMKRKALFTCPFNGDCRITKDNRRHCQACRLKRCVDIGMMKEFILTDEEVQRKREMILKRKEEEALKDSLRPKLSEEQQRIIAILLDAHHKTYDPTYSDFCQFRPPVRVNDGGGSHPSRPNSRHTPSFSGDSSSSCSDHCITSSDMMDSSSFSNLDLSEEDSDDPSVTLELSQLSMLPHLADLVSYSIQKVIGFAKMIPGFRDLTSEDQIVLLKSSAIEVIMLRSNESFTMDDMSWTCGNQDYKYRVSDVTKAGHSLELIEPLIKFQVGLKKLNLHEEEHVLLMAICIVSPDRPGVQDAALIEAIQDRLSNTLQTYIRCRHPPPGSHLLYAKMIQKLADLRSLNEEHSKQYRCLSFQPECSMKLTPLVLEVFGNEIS

Vitamin D3 receptor [3] = target: T1, Vitamin D3 receptor; experiment: Agonist activity at VDR ligand binding domain (unknown origin) by reporter gene assay
Rattus norvegicus [4] = experiment: Toxicity in 5/6 nephrectomized uremic Sprague-Dawley rat assessed as dose require to cause hypercalcemia administered 3 times per week for 12 days measured 24 hrs post last dose; assay type: organism-based; conditions: in vivo
[5] = Therapeutic index, ratio for induction of hypercalcemia over suppression of serum PTH level in 5/6 nephrectomized uremic Sprague-Dawley rat; assay type: organism-based; conditions: read-out: TI

SMILES	EC50 (HL-60)	Activity (Rattus norvegicus [1])	IC50 (Vitamin D3 receptor [2])	EC50 (Vitamin D3 receptor [3])	Activity (Rattus norvegicus [4])	selectivity ratio [5]
C=C1[C@H](O)CC(=C/C=C2\CCC[C@]3(C)[C@@H]([C@@H](C)OC[C@H](C)C(C)(C)O)CC[C@@H]23)C[C@H]1O	11.8 nM	0.004 µg/kg	38 nM	< 0.1 nM	> 0.6 µg/kg	> 50
C[C@H](/C=C/[C@H](C)C(C)(C)O)[C@H]1CC[C@H]2/C(=C/C=C3C[C@@H](O)C[C@H](O)C3)CCC[C@]12C [PARICALCITOL]	12.5 nM	0.02 µg/kg			> 0.08 µg/kg	4
